The source of these data is ChEMBL document CHEMBL3856253, “6'-O-Caffeoyldihydrosyringin isolated from Aster glehni suppresses lipopolysaccharide-induced iNOS, COX-2, TNF-α, IL-1β and IL-6 expression via NF-κB and AP-1 inactivation in RAW 264.7 macrophages” (Bioorg Med Chem Lett, 2016).

In general, IC50 refers to the concentration needed to halve the response being measured. The term IC80 denotes the concentration at which the effect reaches the 80% level.

The nature of data set [1]: (§1) Inhibition of NF-kappaB/AP-1 in mouse RAW264.7 cells assessed as reduction in LPS-induced PGE2 production incubated for 1 hr followed by stimulation with LPS for 24 hrs by enzyme immuno assay. In kind it is cell-based.
Data set [2] is described as follows: (§2) Inhibition of NF-kappaB/AP-1 in mouse RAW264.7 cells assessed as reduction in LPS-induced nitric oxide production incubated for 1 hr followed by stimulation with LPS for 24 hrs by Griess assay. It is filed as cell-based. (In general: The Griess reaction detects nitrite, a stable product of nitric oxide.)
Data set [3] is described as follows: Cytotoxicity against LPS-induced mouse RAW264.7 cells assessed as decrease in cell viability after 24 hrs by MTT assay. It is filed as toxicity. To be noted: LPS-induced RAW264.7 cells. In general terms: Tetrazolium dyes change colour on reduction, which living cells bring about.
Data set [4] has as its target Transcription factor p65 (Mus musculus) (UniProt Q04207). Put plainly: Inhibition of LPS-induced NF-kappaB p65 subunit phosphorylation in mouse RAW264.7 cells at 50 uM incubated for 1 hr followed by stimulation with LPS for 15 to 45 mins. It is filed as cell-based.
For data set [5], the system named is RAW264.7. The experiment in a line: Inhibition of NF-kappaB/AP-1 in mouse RAW264.7 cells assessed as reduction in LPS-induced TNF-alpha production incubated for 1 hr followed by stimulation with LPS for 24 hrs by enzyme immuno assay. It is filed as cell-based.
Data set [6] has as its target RAC-alpha serine/threonine-protein kinase (Mus musculus) (UniProt P31750). The experiment in a line: Inhibition of LPS-induced AKT phosphorylation in mouse RAW264.7 cells at 50 uM incubated for 1 hr followed by stimulation with LPS by Western blot analysis. It is filed as cell-based.
Data set [7] relates to RAW264.7. The experiment in a line: Inhibition of LPS-induced NF-kappaB (unknown origin) activity expressed in mouse RAW264.7 cells incubated for 1 hr followed by stimulation with LPS for 18 hrs by luciferase reporter gene assay. It is filed as cell-based. On the technique in general: Reporter assays use an easily measured gene product as a stand-in for the process of interest.

In data set [8] the test system is RAW264.7. The data set is described as §1. It is filed as cell-based.
Data set [9] has as its system RAW264.7. The experiment in a line: Inhibition of NF-kappaB/AP-1 in mouse RAW264.7 cells assessed as reduction in LPS-induced iNOS mRNA level incubated for 4 hrs by SYBR green dye based qRT-PCR analysis. It is filed as cell-based.
Data set [10] relates to RAW264.7. Put plainly: Inhibition of NF-kappaB/AP-1 in mouse RAW264.7 cells assessed as reduction in LPS-induced COX-2 mRNA level incubated for 4 hrs by SYBR green dye based qRT-PCR analysis. In kind it is cell-based.
Data set [11] deals with RAW264.7. The experiment in a line: Inhibition of NF-kappaB/AP-1 in mouse RAW264.7 cells assessed as reduction in LPS-induced TNF-alpha mRNA level incubated for 4 hrs by SYBR green dye based qRT-PCR analysis. It is filed as cell-based.
Data set [12] addresses Proto-oncogene c-Fos (Mus musculus) (UniProt P01101). The experiment in a line: Inhibition of LPS-induced AP-1 c-Fos component phosphorylation in nucleus of mouse RAW264.7 cells at 50 uM incubated for 1 hr followed by stimulation with LPS for 15 to 45 mins by Western blot analysis.
For data set [13], the species on record is Mus musculus. The experiment in a line: Cytotoxicity against LPS-induced mouse RAW264.7 cells assessed as decrease in cell viability up to 50 uM after 24 hrs by MTT assay. It is filed as toxicity, cell-based. To be noted: raw264.7, 24 h.
The subject of data set [14] is RAW264.7. The experiment in a line: Inhibition of NF-kappaB/AP-1 in mouse RAW264.7 cells assessed as reduction in LPS-induced iNOS protein expression incubated for 1 hr followed by stimulation with LPS for 24 hrs by Western blot analysis. In kind it is cell-based.
For data set [15], the system named is RAW264.7. Put plainly: Inhibition of NF-kappaB/AP-1 in mouse RAW264.7 cells assessed as reduction in LPS-induced IL-1beta production incubated for 1 hr followed by stimulation with LPS for 24 hrs by enzyme immuno assay. In kind it is cell-based.
Data set [16] concerns RAW264.7. The experiment in a line: Inhibition of NF-kappaB/AP-1 in mouse RAW264.7 cells assessed as reduction in LPS-induced IL-1beta mRNA level incubated for 4 hrs by SYBR green dye based qRT-PCR analysis. It is filed as cell-based.
Data set [17] deals with Transcription factor Jun (Homo sapiens) (UniProt P05412). Put plainly: Inhibition of LPS-induced AP-1 (unknown origin) activity expressed in mouse RAW264.7 cells incubated for 1 hr followed by stimulation with LPS for 18 hrs by luciferase reporter gene assay. It is filed as cell-based.
Data set [18] has as its system RAW264.7. The description is as §2. In kind it is cell-based.
In data set [19] the test system is RAW264.7. The experiment in a line: Inhibition of NF-kappaB/AP-1 in mouse RAW264.7 cells assessed as reduction in LPS-induced IL-6 mRNA level incubated for 4 hrs by SYBR green dye based qRT-PCR analysis. In kind it is cell-based.
For data set [20], the target named is Transcription factor p65 (Mus musculus) (UniProt Q04207). Put plainly: Inhibition of LPS-induced NF-kappaB p65 subunit nuclear translocation in mouse RAW264.7 cells at 50 uM incubated for 1 hr followed by stimulation with LPS for 15 to 45 mins. In kind it is cell-based.
In data set [21] the test system is RAW264.7. Put plainly: Inhibition of NF-kappaB/AP-1 in mouse RAW264.7 cells assessed as reduction in LPS-induced COX-2 protein expression incubated for 1 hr followed by stimulation with LPS for 24 hrs by Western blot analysis. It is filed as cell-based.
Data set [22] concerns RAW264.7. Put plainly: Inhibition of NF-kappaB/AP-1 in mouse RAW264.7 cells assessed as reduction in LPS-induced IL-6 production incubated for 1 hr followed by stimulation with LPS for 24 hrs by enzyme immuno assay. In kind it is cell-based.

Each structure is given as a SMILES string. Calls of active or inactive are those of the source. The rule behind the calls is not given here. Where only a bound is given, the exact number is not on record here.

Transcription factor p65 (Mus musculus), sequence (Q04207 whole entry): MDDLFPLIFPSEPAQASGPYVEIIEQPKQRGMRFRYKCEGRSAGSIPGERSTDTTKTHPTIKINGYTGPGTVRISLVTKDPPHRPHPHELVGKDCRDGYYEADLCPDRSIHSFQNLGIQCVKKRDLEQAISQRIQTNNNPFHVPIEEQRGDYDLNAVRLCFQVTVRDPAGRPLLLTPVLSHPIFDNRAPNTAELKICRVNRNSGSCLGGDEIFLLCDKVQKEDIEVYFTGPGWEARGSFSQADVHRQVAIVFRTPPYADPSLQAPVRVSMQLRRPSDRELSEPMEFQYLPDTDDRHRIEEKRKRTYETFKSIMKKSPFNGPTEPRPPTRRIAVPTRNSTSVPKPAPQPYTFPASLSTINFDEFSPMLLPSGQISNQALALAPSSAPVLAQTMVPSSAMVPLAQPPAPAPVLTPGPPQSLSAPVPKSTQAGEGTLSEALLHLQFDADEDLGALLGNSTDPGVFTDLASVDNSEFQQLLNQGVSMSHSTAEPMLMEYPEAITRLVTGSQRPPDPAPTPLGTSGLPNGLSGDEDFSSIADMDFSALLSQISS
RAC-alpha serine/threonine-protein kinase (Mus musculus), sequence (P31750 whole entry): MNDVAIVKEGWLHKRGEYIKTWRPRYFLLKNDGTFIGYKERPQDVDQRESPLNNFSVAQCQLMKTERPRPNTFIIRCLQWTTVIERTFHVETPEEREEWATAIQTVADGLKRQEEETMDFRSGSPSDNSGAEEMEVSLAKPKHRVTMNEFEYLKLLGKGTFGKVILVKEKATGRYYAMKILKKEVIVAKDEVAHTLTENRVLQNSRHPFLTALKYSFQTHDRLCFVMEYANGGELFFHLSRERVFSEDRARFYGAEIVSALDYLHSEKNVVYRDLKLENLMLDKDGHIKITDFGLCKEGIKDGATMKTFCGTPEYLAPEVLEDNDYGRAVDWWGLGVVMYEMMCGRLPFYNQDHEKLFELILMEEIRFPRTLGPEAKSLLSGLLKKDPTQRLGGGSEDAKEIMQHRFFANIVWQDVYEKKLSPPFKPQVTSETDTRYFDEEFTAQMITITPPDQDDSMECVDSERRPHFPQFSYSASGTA
Transcription factor Jun (Homo sapiens), sequence (P05412 whole entry): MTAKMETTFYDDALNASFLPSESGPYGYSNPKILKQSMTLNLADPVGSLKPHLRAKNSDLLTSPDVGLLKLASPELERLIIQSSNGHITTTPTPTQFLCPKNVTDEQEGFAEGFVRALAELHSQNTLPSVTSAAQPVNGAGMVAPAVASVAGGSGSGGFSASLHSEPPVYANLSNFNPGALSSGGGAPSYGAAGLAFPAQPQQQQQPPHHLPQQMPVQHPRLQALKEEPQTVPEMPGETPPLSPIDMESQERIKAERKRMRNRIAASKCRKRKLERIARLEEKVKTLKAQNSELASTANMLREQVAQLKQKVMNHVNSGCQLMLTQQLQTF
Proto-oncogene c-Fos (Mus musculus), sequence (P01101 whole entry, looked up): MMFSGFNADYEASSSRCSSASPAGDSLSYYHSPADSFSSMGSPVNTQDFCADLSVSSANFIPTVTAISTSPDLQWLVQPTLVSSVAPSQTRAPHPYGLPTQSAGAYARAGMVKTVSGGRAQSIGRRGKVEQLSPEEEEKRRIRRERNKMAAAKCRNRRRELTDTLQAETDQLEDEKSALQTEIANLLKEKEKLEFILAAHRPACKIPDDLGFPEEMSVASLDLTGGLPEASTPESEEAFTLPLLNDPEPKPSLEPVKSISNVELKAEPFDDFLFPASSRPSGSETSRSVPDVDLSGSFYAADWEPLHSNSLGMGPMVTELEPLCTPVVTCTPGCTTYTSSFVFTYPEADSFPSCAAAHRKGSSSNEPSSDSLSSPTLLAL

For `C[C@H](/C=C/[C@@]1(O)[C@H](C)CC(=O)CC1(C)C)O[C@@H]1O[C@H](COC(=O)/C=C/c2ccc(O)c(O)c2)[C@@H](O)[C@H](O)[C@H]1O`, the IC50 in [1] and in [2] was greater than 50 µM each time. In data set [3], the concentration for an effect of 80% (IC80) at 24 h was greater than 100 µM.
With `CC1=CC(=O)CC(C)(C)[C@@]1(O)/C=C/[C@@H](C)O[C@@H]1O[C@H](COC(=O)/C=C/c2ccc(O)c(O)c2)[C@@H](O)[C@H](O)[C@H]1O`, the IC50 in data set [1] and in [2] was greater than 50 µM in each case. Moreover, the IC80 at 24 h in [3] was 67.8 µM.
For the molecule `C/C(=C\CO)CO[C@@H]1O[C@H](COC(=O)/C=C/c2ccc(O)c(O)c2)[C@@H](O)[C@H](O)[C@H]1O`, the values for the IC50 in data set [1] and in data set [2] were greater than 50 µM and 31.5 µM, respectively. In addition, in [3], the IC80 at 24 h was greater than 100 µM.
In the case of `COc1cc(CCCO)cc(OC)c1O[C@@H]1O[C@H](COC(=O)/C=C/c2ccc(O)c(O)c2)[C@@H](O)[C@H](O)[C@H]1O`, the inhibition result in data set [4], in data set [5], in [6], in [11], in [12] and in data set [15] was “Active” each time. Besides, the inhibition entry in data set [16], in [19], in data set [20] and in [22] was “Active” in each case. The inhibition result in data set [7], in data set [8], in [9], in data set [10], in [14] and in data set [17] was “Dose-dependent effect” each time. For the same molecule, the inhibition entry in [18] and in data set [21] was “Dose-dependent effect” in each case. In addition, the IC50 in data set [1] was found to be 48.3 µM; in data set [2] it was 43.6 µM. In addition, the Activity result in data set [13] was “Non-Toxic”. In addition, the IC80 at 24 h in [3] was found to be 67.6 µM.
With `CC(=O)/C=C/C1=C(C)[C@@H](O)[C@@H](O[C@@H]2O[C@H](COC(=O)/C=C/c3ccc(O)c(O)c3)[C@@H](O)[C@H](O)[C@H]2O)CC1(C)C`, the IC50 in data set [1] and in data set [2] was greater than 50 µM each time. Also, the IC80 at 24 h in [3] is greater than 100 µM.
